The text below walks through data of patent publication US20260325533A1, “CDK INHIBITOR COMPOUNDS” (ALEKSIA THERAPEUTICS, INC., priority 2023, published 2026).

Holding throughout (format): biochemical
One test addresses CDK6/CCND1 (Homo sapiens, UniProt Q00534). Kind of test: CDK6 homogeneous time-resolved fluorescence (HTRF) kinase assay. The conditions noted are these: CDK6/CCND, 1 mM ATP. Put shortly: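 Recombinant CDK6/CCND1 (1 nM final) was preincubated with compound for 20 min at 23 °C in HEPES buffer with MgCl2, EGTA, DTT and Tween 20. Kinase reaction then ran 60 min at 23 °C with 1 mM ATP and 50 nM ULight-4E-BP1 (Thr37/46) peptide, and was stopped with EDTA.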

For the next test, the target named is CDK2/CCNE1 (Homo sapiens, UniProt P24941). Description: CDK2 homogeneous time-resolved fluorescence (HTRF) kinase assay. The conditions noted are these: CDK2/CCNE. Put shortly: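 TR-FRET read-out (665 nm, or 665/615 ratio) of Eu-antibody detection of phospho-4E-BP1 (Thr37/46) ULight peptide. Enzyme 3 nM, ATP 1 mM, peptide 50 nM, 1% DMSO; 60 min reaction at 23 °C after 20 min compound preincubation. IC50 from 11-point half-log titrations, top typically 10 μM.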
(In general: Time-resolved FRET reads energy transfer from a long-lived donor to a nearby acceptor.)

In another test the target is CDK1/CCNB1 (Homo sapiens, UniProt P06493). Kind of test: CDK1 homogeneous time-resolved fluorescence (HTRF) kinase assay. As to conditions: CDK1/CCNB. Put shortly:
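Read-out: TR-FRET (Eu anti-phospho-4E-BP1 Thr37/46 antibody, 2 nM; 665 nm or 665/615 ratio) after 60 min phosphorylation of 50 nM ULight-peptide by 0.5 nM CDK1/CCNB1 at 1 mM ATP, 23 °C. Compound preincubated 20 min with enzyme; 1% DMSO.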

A further test deals with CDK4/CCND3 (Homo sapiens, UniProt P11802). Description: CDK4 homogeneous time-resolved fluorescence (HTRF) kinase assay. The conditions noted are these: CDK4/CCND. Put shortly:
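HTRF kinase assay, CDK4/CCND3 1.5 nM, ATP 1 mM, ULight-4E-BP1 peptide 50 nM, 23 °C, 60 min reaction after 20 min preincubation. Eu-anti-pThr37/46 antibody detection. 11-pt half-log curves from 10 μM → IC50.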

The mark [1] stands for this setting: >250 nM, read-out: CDK6/CCND IC50, >250 nM.
[2] abbreviates: <25 nM, read-out: CDK2/CCNE IC50, <25 nM.
[3] abbreviates: >250 nM, read-out: CDK1/CCNB IC50 >250 nM.
Setting [4] is: >250 nM, read-out: CDK4/CCND IC50, >250 nM.
[5] abbreviates: 25-250 nM, read-out: CDK6/CCND IC50, 25-250 nM.
Where [6] appears, read: 25-250 nM, read-out: CDK4/CCND IC50, 25-250 nM.
The mark [7] stands for this setting: 25-250 nM, read-out: CDK2/CCNE IC50, 25-250 nM.
Setting [8] is: 25-250 nM, read-out: CDK1/CCNB IC50, 25-250 nM.

Structures are written as SMILES. Where two headings read alike, the source gives them in different places.

CDK6/CCND1, sequence (Q00534 whole entry): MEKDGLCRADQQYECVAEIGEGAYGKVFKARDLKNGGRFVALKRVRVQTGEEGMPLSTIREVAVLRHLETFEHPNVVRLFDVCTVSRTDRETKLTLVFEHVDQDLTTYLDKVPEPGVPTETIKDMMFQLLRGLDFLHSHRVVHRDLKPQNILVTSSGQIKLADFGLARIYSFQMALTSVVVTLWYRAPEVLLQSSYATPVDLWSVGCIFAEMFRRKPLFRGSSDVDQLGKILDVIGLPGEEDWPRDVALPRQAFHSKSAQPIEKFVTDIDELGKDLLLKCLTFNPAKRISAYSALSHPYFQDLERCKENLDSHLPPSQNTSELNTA
CDK6/CCND1, sequence (P24385 whole entry partner): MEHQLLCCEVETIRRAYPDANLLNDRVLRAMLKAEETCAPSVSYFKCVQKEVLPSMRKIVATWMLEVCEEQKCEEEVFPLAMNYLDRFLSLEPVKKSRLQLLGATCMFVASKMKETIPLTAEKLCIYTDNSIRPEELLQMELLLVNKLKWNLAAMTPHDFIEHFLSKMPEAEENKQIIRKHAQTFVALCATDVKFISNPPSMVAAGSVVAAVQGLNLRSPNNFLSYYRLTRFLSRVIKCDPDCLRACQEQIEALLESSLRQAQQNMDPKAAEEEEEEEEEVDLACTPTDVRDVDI
CDK1/CCNB1, sequence (P06493 whole entry): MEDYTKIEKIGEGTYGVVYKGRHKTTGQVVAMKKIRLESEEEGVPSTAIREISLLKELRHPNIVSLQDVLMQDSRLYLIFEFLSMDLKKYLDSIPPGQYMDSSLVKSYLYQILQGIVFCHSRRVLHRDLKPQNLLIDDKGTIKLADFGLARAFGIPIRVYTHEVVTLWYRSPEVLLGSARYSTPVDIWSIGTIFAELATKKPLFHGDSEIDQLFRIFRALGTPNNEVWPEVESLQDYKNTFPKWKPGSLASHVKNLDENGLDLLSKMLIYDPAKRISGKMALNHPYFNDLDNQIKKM
CDK1/CCNB1, sequence (P14635 whole entry partner): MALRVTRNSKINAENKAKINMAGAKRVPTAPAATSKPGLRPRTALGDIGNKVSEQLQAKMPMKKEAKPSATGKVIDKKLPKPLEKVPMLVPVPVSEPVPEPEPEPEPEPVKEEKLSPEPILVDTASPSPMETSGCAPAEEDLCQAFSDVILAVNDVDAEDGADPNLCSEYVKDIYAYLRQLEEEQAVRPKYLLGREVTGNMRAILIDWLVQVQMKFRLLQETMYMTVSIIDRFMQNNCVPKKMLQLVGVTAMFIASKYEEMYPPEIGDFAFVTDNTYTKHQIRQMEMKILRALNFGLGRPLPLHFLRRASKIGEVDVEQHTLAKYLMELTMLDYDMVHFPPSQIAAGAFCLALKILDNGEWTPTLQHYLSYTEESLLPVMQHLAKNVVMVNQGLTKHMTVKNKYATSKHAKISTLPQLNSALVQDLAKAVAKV
CDK4/CCND3, sequence (P11802 whole entry): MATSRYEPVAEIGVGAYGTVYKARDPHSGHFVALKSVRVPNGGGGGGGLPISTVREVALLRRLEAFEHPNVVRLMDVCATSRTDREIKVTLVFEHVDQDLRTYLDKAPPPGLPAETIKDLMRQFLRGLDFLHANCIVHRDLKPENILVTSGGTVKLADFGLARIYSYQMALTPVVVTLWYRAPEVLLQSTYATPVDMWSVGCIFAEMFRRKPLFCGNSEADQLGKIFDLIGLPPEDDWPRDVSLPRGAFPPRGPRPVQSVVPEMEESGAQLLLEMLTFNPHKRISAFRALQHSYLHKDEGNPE
CDK4/CCND3, sequence (P30281 whole entry partner): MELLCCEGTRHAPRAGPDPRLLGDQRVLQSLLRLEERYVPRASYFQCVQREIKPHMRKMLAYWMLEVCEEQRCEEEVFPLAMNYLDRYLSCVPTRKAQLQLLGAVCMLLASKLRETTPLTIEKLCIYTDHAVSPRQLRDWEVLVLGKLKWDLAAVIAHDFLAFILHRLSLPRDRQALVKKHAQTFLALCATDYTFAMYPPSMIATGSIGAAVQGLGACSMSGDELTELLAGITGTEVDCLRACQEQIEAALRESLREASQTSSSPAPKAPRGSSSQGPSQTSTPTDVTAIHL

For the molecule `Cc1c(-c2nccc3cnc(Nc4ccc(S(=O)(=O)Nc5cc(C(F)(F)F)ccn5)cc4)cc23)ccc2c1cnn2CC(C)(C)O` [Ex 816, 4-((5-(1-(2-hydroxy-2-methylpropyl)-4-methyl-1H-indazol-5-yl)-2,6-naphthyridin-3-yl)amino)-N-(4-(trifluoromethyl)pyridin-2-yl)benzenesulfonamide], the IC50 at CDK6/CCND1 (setting [1]) was over 250 nM; on CDK2/CCNE1 (setting [2]) it was under 25 nM; at CDK1/CCNB1 (setting [3]), over 250 nM; at CDK4/CCND3 (setting [4]), over 250 nM.
Turning to `Cc1cccc(NS(=O)(=O)c2ccc(Nc3cc4c(-c5ccc6c(cnn6CC(C)(C)O)c5C)nccc4cn3)cc2)n1` [Ex 817, 4-((5-(1-(2-hydroxy-2-methylpropyl)-4-methyl-1H-indazol-5-yl)-2,6-naphthyridin-3-yl)amino)-N-(6-methylpyridin-2-yl)benzenesulfonamide], the IC50 was 25 to 250 nM on CDK6/CCND1 (setting [5]), under 25 nM at CDK2/CCNE1 (setting [2]), over 250 nM at CDK1/CCNB1 (setting [3]) and 25 to 250 nM on CDK4/CCND3 (setting [6]).
`Cc1cc(C)nc(NS(=O)(=O)c2ccc(Nc3cc4c(-c5ccc6c(cnn6CC(C)(C)O)c5C)nccc4cn3)cc2)c1` [Ex 818, N-(4,6-dimethylpyridin-2-yl)-4-((5-(1-(2-hydroxy-2-methylpropyl)-4-methyl-1H-indazol-5-yl)-2,6-naphthyridin-3-yl)amino)benzenesulfonamide]: the IC50 on CDK6/CCND1 (setting [5]) is 25 to 250 nM; on CDK2/CCNE1 (setting [2]), under 25 nM; on CDK1/CCNB1 (setting [3]), over 250 nM; at CDK4/CCND3 (setting [6]) it was 25 to 250 nM.
As for `Cc1c(-c2nccc3cnc(Nc4ccc(NS(=O)(=O)c5cccc6nsnc56)cc4)cc23)ccc2c1cnn2CC(C)(C)O` [Ex 819, N-(4-((5-(1-(2-hydroxy-2-methylpropyl)-4-methyl-1H-indazol-5-yl)-2,6-naphthyridin-3-yl)amino)phenyl)benzo[c][1,2,5]thiadiazole-4-sulfonamide], the IC50 on CDK6/CCND1 (setting [1]) was over 250 nM; on CDK2/CCNE1 (setting [7]), 25 to 250 nM; at CDK1/CCNB1 (setting [3]) it was over 250 nM; on CDK4/CCND3 (setting [4]), over 250 nM.
In the case of `Cc1c(-c2nccc3cnc(Nc4ccc(NS(=O)(=O)c5cccc6nn(C)cc56)cc4)cc23)ccc2c1cnn2CC(C)(C)O` [Ex 820, N-(4-((5-(1-(2-hydroxy-2-methylpropyl)-4-methyl-1H-indazol-5-yl)-2,6-naphthyridin-3-yl)amino)phenyl)-2-methyl-2H-indazole-4-sulfonamide], the IC50 is over 250 nM on CDK6/CCND1 (setting [1]), 25 to 250 nM at CDK2/CCNE1 (setting [7]), over 250 nM on CDK1/CCNB1 (setting [3]) and over 250 nM on CDK4/CCND3 (setting [4]).
In the case of `Cc1c(-c2nccc3cnc(Nc4ccc(NS(=O)(=O)c5cccc6nonc56)cc4)cc23)ccc2c1cnn2CC(C)(C)O` [Ex 821, N-(4-((5-(1-(2-hydroxy-2-methylpropyl)-4-methyl-1H-indazol-5-yl)-2,6-naphthyridin-3-yl)amino)phenyl)benzo[c][1,2,5]oxadiazole-4-sulfonamide], the IC50 was over 250 nM at CDK6/CCND1 (setting [1]), under 25 nM at CDK2/CCNE1 (setting [2]), over 250 nM at CDK1/CCNB1 (setting [3]) and over 250 nM on CDK4/CCND3 (setting [4]).
Turning to `Cc1c(-c2nccc3cnc(Nc4ccc(NS(=O)(=O)c5cncc(Cl)c5)cc4)cc23)ccc2c1cnn2CC(C)(C)O` [Ex 822, 5-chloro-N-(4-((5-(1-(2-hydroxy-2-methylpropyl)-4-methyl-1H-indazol-5-yl)-2,6-naphthyridin-3-yl)amino)phenyl)pyridine-3-sulfonamide], the IC50 on CDK6/CCND1 (setting [1]) is over 250 nM; at CDK2/CCNE1 (setting [2]) it was under 25 nM; at CDK1/CCNB1 (setting [3]), over 250 nM; on CDK4/CCND3 (setting [4]), over 250 nM.
`Cc1ccc(S(=O)(=O)Nc2ccc(Nc3cc4c(-c5ccc6c(cnn6CC(C)(C)O)c5C)nccc4cn3)cc2)cn1` [Ex 823, N-(4-((5-(1-(2-hydroxy-2-methylpropyl)-4-methyl-1H-indazol-5-yl)-2,6-naphthyridin-3-yl)amino)phenyl)-6-methylpyridine-3-sulfonamide]: the IC50 on CDK6/CCND1 (setting [5]) was 25 to 250 nM; at CDK2/CCNE1 (setting [2]), under 25 nM; at CDK1/CCNB1 (setting [8]), 25 to 250 nM; on CDK4/CCND3 (setting [6]), 25 to 250 nM.
`Cc1c(-c2nccc3cnc(Nc4ccc(NS(=O)(=O)c5cnn(-c6ccccn6)c5)cc4)cc23)ccc2c1cnn2CC(C)(C)O` [Ex 824, N-(4-((5-(1-(2-hydroxy-2-methylpropyl)-4-methyl-1H-indazol-5-yl)-2,6-naphthyridin-3-yl)amino)phenyl)-1-(pyridin-2-yl)-1H-pyrazole-4-sulfonamide]: the IC50 on CDK6/CCND1 (setting [1]) is over 250 nM; on CDK2/CCNE1 (setting [7]), 25 to 250 nM; on CDK1/CCNB1 (setting [3]) it was over 250 nM; at CDK4/CCND3 (setting [4]), over 250 nM.
For `Cc1c(-c2nccc3cnc(Nc4ccc(NS(=O)(=O)c5ccoc5)cc4)cc23)ccc2c1cnn2CC(C)(C)O` [Ex 825, N-(4-((5-(1-(2-hydroxy-2-methylpropyl)-4-methyl-1H-indazol-5-yl)-2,6-naphthyridin-3-yl)amino)phenyl)furan-3-sulfonamide], the IC50 is 25 to 250 nM on CDK6/CCND1 (setting [5]), under 25 nM on CDK2/CCNE1 (setting [2]), 25 to 250 nM on CDK1/CCNB1 (setting [8]) and 25 to 250 nM on CDK4/CCND3 (setting [6]).
Turning to `Cc1nn(-c2ccccc2)c(C)c1S(=O)(=O)Nc1ccc(Nc2cc3c(-c4ccc5c(cnn5CC(C)(C)O)c4C)nccc3cn2)cc1` [Ex 826, N-(4-((5-(1-(2-hydroxy-2-methylpropyl)-4-methyl-1H-indazol-5-yl)-2,6-naphthyridin-3-yl)amino)phenyl)-3,5-dimethyl-1-phenyl-1H-pyrazole-4-sulfonamide], the IC50 on CDK6/CCND1 (setting [1]) is over 250 nM; on CDK2/CCNE1 (>250 nM, read-out: CDK2/CCNE IC50, >250 nM), over 250 nM; on CDK1/CCNB1 (setting [3]) it was over 250 nM; at CDK4/CCND3 (setting [4]), over 250 nM.
`Cc1c(-c2nccc3cnc(Nc4ccc(NS(=O)(=O)c5ccc(Cl)s5)cc4)cc23)ccc2c1cnn2CC(C)(C)O` [Ex 827, 5-chloro-N-(4-((5-(1-(2-hydroxy-2-methylpropyl)-4-methyl-1H-indazol-5-yl)-2,6-naphthyridin-3-yl)amino)phenyl)thiophene-2-sulfonamide]: the IC50 at CDK6/CCND1 (setting [1]) was over 250 nM; at CDK2/CCNE1 (setting [7]), 25 to 250 nM; on CDK1/CCNB1 (setting [3]), over 250 nM; at CDK4/CCND3 (setting [4]), over 250 nM.
Take `Cc1c(-c2nccc3cnc(Nc4ccc(NS(=O)(=O)c5cn(C)cn5)cc4)cc23)ccc2c1cnn2CC(C)(C)O` [Ex 828, N-(4-((5-(1-(2-hydroxy-2-methylpropyl)-4-methyl-1H-indazol-5-yl)-2,6-naphthyridin-3-yl)amino)phenyl)-1-methyl-1H-imidazole-4-sulfonamide]: the IC50 is 25 to 250 nM at CDK6/CCND1 (setting [5]), under 25 nM on CDK2/CCNE1 (setting [2]), 25 to 250 nM on CDK1/CCNB1 (setting [8]) and 25 to 250 nM at CDK4/CCND3 (setting [6]).
For the molecule `CCc1ccc(S(=O)(=O)Nc2ccc(Nc3cc4c(-c5ccc6c(cnn6CC(C)(C)O)c5C)nccc4cn3)cc2)s1` [Ex 829, 5-ethyl-N-(4-((5-(1-(2-hydroxy-2-methylpropyl)-4-methyl-1H-indazol-5-yl)-2,6-naphthyridin-3-yl)amino)phenyl)thiophene-2-sulfonamide], the IC50 on CDK6/CCND1 (setting [1]) was over 250 nM; on CDK2/CCNE1 (setting [2]), under 25 nM; at CDK1/CCNB1 (setting [3]), over 250 nM; at CDK4/CCND3 (setting [4]), over 250 nM.
Turning to `Cc1nn(C)c(C)c1S(=O)(=O)Nc1ccc(Nc2cc3c(-c4ccc5c(cnn5CC(C)(C)O)c4C)nccc3cn2)cc1` [Ex 830, N-(4-((5-(1-(2-hydroxy-2-methylpropyl)-4-methyl-1H-indazol-5-yl)-2,6-naphthyridin-3-yl)amino)phenyl)-1,3,5-trimethyl-1H-pyrazole-4-sulfonamide], the IC50 is over 250 nM on CDK6/CCND1 (setting [1]), under 25 nM on CDK2/CCNE1 (setting [2]), over 250 nM on CDK1/CCNB1 (setting [3]) and over 250 nM at CDK4/CCND3 (setting [4]).
Consider `Cc1c(-c2nccc3cnc(Nc4ccc(NS(=O)(=O)c5ccsc5)cc4)cc23)ccc2c1cnn2CC(C)(C)O` [Ex 831, N-(4-((5-(1-(2-hydroxy-2-methylpropyl)-4-methyl-1H-indazol-5-yl)-2,6-naphthyridin-3-yl)amino)phenyl)thiophene-3-sulfonamide], for which the IC50 is over 250 nM at CDK6/CCND1 (setting [1]), under 25 nM at CDK2/CCNE1 (setting [2]), over 250 nM on CDK1/CCNB1 (setting [3]) and over 250 nM at CDK4/CCND3 (setting [4]).
On to `Cc1c(-c2nccc3cnc(Nc4ccc(NS(=O)(=O)c5ccn(C)n5)cc4)cc23)ccc2c1cnn2CC(C)(C)O` [Ex 832, N-(4-((5-(1-(2-hydroxy-2-methylpropyl)-4-methyl-1H-indazol-5-yl)-2,6-naphthyridin-3-yl)amino)phenyl)-1-methyl-1H-pyrazole-3-sulfonamide], for which the IC50 on CDK6/CCND1 (setting [5]) was 25 to 250 nM; on CDK2/CCNE1 (setting [2]), under 25 nM; at CDK1/CCNB1 (setting [8]), 25 to 250 nM; on CDK4/CCND3 (setting [6]), 25 to 250 nM.
